“Also recorded” adds a separate entry of the source.
What was measured:
[1] = test system: TS protein expression in PANC-1 cells; test: Immunoblot analysis of TS expression in PANC-1 cells; type: cell-based; conditions: PANC-1 cells treated 72 hours (FIG. 1D)
Procedure: To prepare lysates, 0.5×10^6 PA NC-1 cells were seeded in 100 mm dishes in 10 ml DMEM High glucose and 24 hours later, 5-FU (Sigma) or 19-S were added at the specified concentrations. Cells were harvested after 72 hours and cell pellets were stored at −80° C. For GI50 determination, 3000 MIA PaCa-2 cells. […] After 72 hours, cell viability was assessed by reduction of MTS ((3-4,5-dimethylthiazol-2-yl)-5-(3-carboxymethoxyphenol)-2-(4-sulfophenyl)-2H-tetrazolium) using Cell Titer 96 R Aqueous One Solution Cell Proliferation Assay Kit (Promega), following manufacturer's recommendations. Chemiluminescent output (integration time 1000 ms) was measured on a SpectraMax M3® (Molecular devices). […]
Protein lysates were generated using RIPA buffer (Santa Cruz) for 20 minutes on ice, followed by 15 minutes centrifugation at 13,000 rpm, at 4° C. […] Protein was quantified using Bradford Assay (BioRad) following manufacturer's recommendations, standard curves were generated with bovine serum albumin (Fisher).
20 μg of total protein lysate was loaded per lane of 10% Tris Glycine Gel (Invitrogen). […] Signal was detected using West Pico Plus chemiluminescent substrate (Thermo Scientific) following manufacturer's recommendations. […] For protein level quantification relative to loading control, densitometric analysis was performed by ImageJ software.

BON cells = test: Cell viability (MTS) assay, BON; type: cell-based; conditions: 72 hour drug incubation (FIG. 1C)
[2] = target: T1, human thymidylate synthase (hTS) (Homo sapiens, UniProt P04818); test: Tritium based TS catalytic activity assay; type: biochemical
T1 construct: 6xHis (N); made in house; host or cells: E. coli BL21 (DE3)
Procedure: The catalytic activity of TS was determined by measuring the release of [31] from [5-3H]dUMP (ViTrax, VT122) resulting from the conversion of dUMP to dTMP as previously described12,33. […] Reactions were performed in 50 mM KH2PO4 (Sigma Aldrich, P0662) at pH 7.2 using 2 μg of purified human TS. Reactions were performed in a final volume of 200 μL with 100 mM β-mercaptoethanol (Sigma Aldrich, M7522), 40 μM dUMP (Sigma Aldrich, D3876), 100 μM 5,10-mTHF, and the [5-3H]dUMP tracer (ViTrax, VT122) accounting for 0.06% of the final dUMP concentration in the reaction. […] Reactions were initiated by the addition of the dUMP substrate and 5,10-mTHF cofactor, then incubated at 37° C. for 30 minutes. […] Reactions were terminated by the addition of 100 μL of ice-cold 20% trichloroacetic acid (Sigma Aldrich, T6399), then excess [5-31-]dUMP was removed by the addition of 200 μL of an albumin-coated activated charcoal solution. The albumin-coated activated charcoal solution was prepared by mixing 10 g of acid-washed activated dextran coated charcoal (Sigma Aldrich, C6241) with 2.5 g of bovine albumin (Sigma Aldrich, A1933) in 100 mL of H2O. The suspension was incubated at room temperature for 30 minutes and then centrifuged for 30 minutes at 10,000×g. […] For all experiments, positive control reactions were performed with no drug representing 100% TS activity, and negative control reactions were performed with no TS enzyme or no 5,10-mTHF substrate representing 0% TS activity. All assays were performed in biological duplicate and technical duplicate. Results were analyzed using GraphPad Prism 8.

T1 sequence (P04818 whole entry): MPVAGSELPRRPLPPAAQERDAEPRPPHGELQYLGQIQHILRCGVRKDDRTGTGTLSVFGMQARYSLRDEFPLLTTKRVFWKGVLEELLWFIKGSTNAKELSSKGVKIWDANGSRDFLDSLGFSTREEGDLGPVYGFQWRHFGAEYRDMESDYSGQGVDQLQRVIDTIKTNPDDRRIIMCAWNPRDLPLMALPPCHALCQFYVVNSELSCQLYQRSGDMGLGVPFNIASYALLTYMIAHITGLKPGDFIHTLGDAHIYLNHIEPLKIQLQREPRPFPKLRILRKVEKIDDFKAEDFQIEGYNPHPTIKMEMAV

CCc1nc(N)nc(N)c1-c1ccc(N(C)Cc2ccccc2)c([N+](=O)[O-])c1 [Compound 19-S]
TS protein expression (steady-state TS levels) [1]: no increase in steady-state TS levels | IC50 (BON cells): 120 nM | inhibition of TS catalytic activity, 19-S series library screen ([2]; 250 uM (FIG. 4A)): inhibited TS activity | TS inhibition at decreasing drug concentrations ([2]; compared with Pem and MTX controls (FIG. 4C)): greater TS inhibition than both MTX and Pen; also recorded: both strong TS and DHFR inhibition | TS activity (conversion of dUMP) ([2]; drug 250 μM, 10 μg/mL bacterially expressed TS protein (FIG. 1B)): comparable TS inhibition as seen with the 5-FU metabolite FdUrd
